{"source": "patent US7091038B2", "about": "“Ecdysone receptor-based inducible gene expression system” (RheoGene, Inc., priority 2000, dated 2006)", "key": {"[1]": {"test_system": "GAL4RXR + VP16CfEcR", "experiment": "Transactivation of reporter gene through switch 1.3 in 3T3 cells", "settings": "GAL4MmRXRDEF/VP16CfEcRCDEF (switch 1.3), 1.0 μM ligand", "text": "(§1) In various cellular backgrounds, including mammalian cells, insect ecdysone receptor (EcR) heterodimerizes with retinoid X receptor (RXR) and, upon binding of ligand, transactivates genes under the control of ecdysone response elements. […] The prepared receptor constructs comprise a ligand binding domain of EcR and of RXR or of USP; a DNA binding domain of GAL4 or of EcR; and an activation domain of VP16. The reporter constructs include a reporter gene, luciferase or LacZ, operably linked to a synthetic promoter construct that comprises either GAL4 or EcR/USP binding sites (response elements). Various combinations of these receptor and reporter constructs were cotransfected into CHO, NIH3T3, CV1 and 293 cells.\nThe same procedures described for CHO cells were followed for 3T3 cells as well with two modifications. The cells were plated when they reached 50% confluency. 125,000 or 50,000 or 25,000 cells were plated per well of 6- or 12- or 24-well plates respectively. […] The ligand treatments were performed as described in the CHO cell section above."}, "[2]": {"test_system": "GAL4EcR + VP16RXR", "experiment": "Transactivation of reporter gene through switch 1.1 in 3T3 cells", "settings": "GAL4CfEcRDEF/VP16MmRXRDEF (switch 1.1), 1.0 μM ligand, 48 hr", "text": "as §1\nThe same procedures described for CHO cells were followed for 3T3 cells as well with two modifications. The cells were plated when they reached 50% confluency. 125,000 or 50,000 or 25,000 cells were plated per well of 6- or 12- or 24-well plates respectively."}, "[3]": {"test_system": "CfEcR", "experiment": "Transactivation through CfEcR- versus DmEcR-based switches in mammalian cell lines (Tables 1–4)", "design": "species or system Choristoneura fumiferana", "experimental": "Cells were harvested 24–48 hr after adding ligands. […] Twenty μl of lysate was assayed."}, "[4]": {"test_system": "CfEcRDEF:MmRXRDEF", "experiment": "CfEcR-based yeast two-hybrid assay, LacZ reporter pSH118", "type": "cell-based, Choristoneura fumiferana; Mus musculus", "settings": "yeast strain comprising CfEcRDEF:MmRXRDEF; 0–100 μM ligand for four hours; FIGS. 18 and 19", "text": "This construct results in a LexA:CfEcRDEF fusion that is expressed under the GAL1 promoter.\nThe D, E, and F domains from mouse (Mus musculus) RXR α (“MmRXRDEF”; SEQ ID NO: 22) were fused to a B42 transactivation domain (“B42AD”; SEQ ID NO: 53) and placed under the control of a GAL1 promoter (SEQ ID NO: 73) in pB42AD (CLONTECH). This construct results in a B42AD:MmRXR-DEF fusion that is expressed under the GAL 1 promoter.\nA reporter plasmid comprising a β-galactosidase gene (LacZ; SEQ ID NO: 74) under the control of an 8XLexA operon response element (“8XlexAop”; SEQ ID NO: 75) operably linked to a minimal TATAA region from the GAL1 promoter (p8op-lacZ from CLONTECH) was used to monitor inducible gene expression.\nSaccharomyces cerevisiae yeast cells (EGY48; CLONTECH) were used in these experiments. Cells were maintained in liquid culture media with the appropriate drop out amino acids. Standard methods for culture and maintenance of the cells were followed. […]\nDNA constructs pSH118, CfEcRDEF, and MmRXRA/BCDEF, MmRXRDEF, or […] were transfected into yeast cells. […] A colony from each group of transformants was grown in the liquid culture in the presence of 0, 0.04, 0.2, 1, 5 and 25 μM GS™-E. The reporter activity was measured as described above 4 hours after adding ligand. Total RLUs were calculated and the numbers on the bars of FIG. 16 show maximum fold induction observed for that group (see FIGS. 16 and 17).\nThe best performing transformed yeast strain from the analysis above comprising CfEcRDEF:MmRXRDEF was used to determine the induction activity of three steroid ligands (20E, PonA, MurA) and four non-steroid ligands (GS™-E, RH2485, RH5992, RH5849) in this yeast-based format. The yeast cells were cultured in the presence of 0, 0.l, 1, 10, 50 and 100 μM ligands for four hours and the reporter activity was measured as described above. Total RLUs were calculated and the numbers on the top of the bars of FIG. 18 show the maximum fold induction for that group (see FIGS. 18 and 19)."}, "[5]": {"test_system": "EcR/RXR receptor combinations", "experiment": "Truncated CfEcR and MmRXR receptor combinations, luciferase reporter in NIH3T3 cells", "type": "cell-based, Choristoneura fumiferana; Mus musculus", "settings": "0, 1, 5 or 25 uM ligand for 48 hr, FIGS. 11–14", "experimental": "Briefly, polynucleotides encoding EcR or RXR receptors were truncated at the junctions of A/B, C, D, E and F domains and fused to either a GAL4 DNA binding domain encoding polynucleotide (SEQ ID NO: 43) for CfEcR, or a VP16 activation domain encoding polynucleotide (SEQ ID NO: 49) for MmRXR as described in Example 1. The resulting receptor truncation/fusion polypeptides were assayed in NIH3T3 cells. Plasmid pFRLUC (Stratagene) encoding a luciferase polypeptide was used as a reporter gene construct and pTKRL (Promega) encoding a Renilla luciferase polypeptide under the control of the constitutive TK promoter was used to normalize the transfections as described above. The analysis was performed in triplicates and mean luciferase counts were determined as described above. […]"}}, "data": [{"smiles": "CC(C)CC[C@@H](O)[C@](C)(O)[C@H]1CC[C@@]2(O)C3=CC(=O)[C@]4(O)C[C@@H](O)[C@@H](O)C[C@]4(C)[C@H]3[C@H](O)C[C@]12C", "note": "[Muristerone A, reference compound]", "values": [{"measurement": "Mean Fold Induction at 1.0 μM Concentration", "setting": "[1]", "result": 1.0, "unit": "fold"}, {"measurement": "Mean Fold Induction at 1.0 μM Concentration", "setting": "[2]", "result": 1.0, "unit": "fold"}]}, {"smiles": "Cc1cc(C)cc(C(=O)N(NC(=O)c2ccc3c(c2C)OCCO3)C(C)(C)C)c1", "note": "[N-(3,4-(1,2-ethylenedioxy)-2-methylbenzoyl)-N′-(3,5-dimethylbenzoyl)-N′-tert-butylhydrazine]", "values": [{"measurement": "Mean Fold Induction at 1.0 μM Concentration", "setting": "[1]", "result": 54, "unit": "fold"}, {"measurement": "Potency as activator of CfEcR compared to DmEcR", "setting": "[3]", "result": "more potent activators of CfEcR as compared to Drosophila melanogaster EcR (DmEcR)"}]}, {"smiles": "CC(C)(C)N(NC(=O)c1ccccc1)C(=O)c1ccccc1", "note": "[RH5849, N-tert-butyl-N,N′-dibenzoylhydrazine]", "values": [{"measurement": "Induction of gene expression (relative performance of ligands)", "setting": "[4]", "result": "did not show a significant response"}]}, {"smiles": "CC(C)CC[C@@H](O)[C@](C)(O)[C@H]1CC[C@@]2(O)C3=CC(=O)[C@@H]4C[C@@H](O)[C@@H](O)C[C@]4(C)[C@H]3CC[C@]12C", "note": "[Ponasterone A, reference compound]", "values": [{"measurement": "Sensitivity of the EcR/RXR switch to the ligand", "setting": "[5]", "result": "insensitive"}, {"measurement": "Mean Fold Induction at 1.0 μM Concentration", "setting": "[1]", "result": 1.0, "unit": "fold"}, {"measurement": "Mean Fold Induction at 1.0 μM Concentration", "setting": "[2]", "result": 1.0, "unit": "fold"}]}]}
